According to PubChem BioAssay AID1918947 (Molecular Pharmacology Branch, DTP, NCI, 2023):

Tested on: A498 complex spheroid viability
Test: Anticancer human tumor A498 cell line growth inhibition;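 note: spheroids exposed to agents for seven days before readout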;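 for viability, T/C: 100% = DMSO vehicle-treated spheroids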
Conditions: for IC50: curve of first compound; for viability, T/C: stronger effect = lower value
Outline: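 Drug combinations with the LSD1 inhibitor iadademstat tested on tumor cells co-cultured as spheroids with endothelial cells and mesenchymal stem cells. Concentrations descended in half-log increments from clinical Cmax or 10 microM.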

**Q.** With `COc1ccc([C@@H](O)c2cc(-c3ncnc4cc(N5CCOCC5)ccc34)c(F)cc2Cl)nn1` + NC1CCC(NC2CC2c2ccccc2)CC1 as the molecule, how does the IC50 (second compound 0.1 µM) read?
**A.** Its IC50 is 0.113 µM.

**Q.** And the IC50 (second compound 0.316 µM)?
**A.** The IC50 was 0.154 µM.

**Q.** And the IC50 (second compound 1 µM)?
**A.** Its IC50 is 0.128 µM.

**Q.** What about the IC50 (second compound 3.16 µM) of the same molecule?
**A.** The IC50 was 0.13 µM.

**Q.** What about the IC50 (second compound 10 µM) of the same molecule?
**A.** The IC50 was 0.126 µM.

**Q.** What about the viability, T/C (second compound 0.1 µM, first compound 0.0316 µM) of the same molecule?
**A.** Its viability, T/C is 80.5%.

**Q.** What about the viability, T/C (second compound 0.1 µM, first compound 0.1 µM) of the same molecule?
**A.** Its viability, T/C is 53.5%.

**Q.** And the viability, T/C (second compound 0.1 µM, first compound 0.316 µM)?
**A.** The viability, T/C was 28.8%.

**Q.** And the viability, T/C (second compound 0.1 µM, first compound 1 µM)?
**A.** Its viability, T/C is 20.4%.

**Q.** What about the viability, T/C (second compound 0.1 µM, first compound 3.16 µM) of the same molecule?
**A.** The viability, T/C was 11%.

**Q.** And the viability, T/C (second compound 0.1 µM, first compound 10 µM)?
**A.** Its viability, T/C is 6.4%.

**Q.** And the viability, T/C (second compound 0.316 µM, first compound 0.0316 µM)?
**A.** Its viability, T/C is 79.6%.

**Q.** What about the viability, T/C (second compound 0.316 µM, first compound 0.1 µM) of the same molecule?
**A.** The viability, T/C was 58.5%.

**Q.** And the viability, T/C (second compound 0.316 µM, first compound 0.316 µM)?
**A.** The viability, T/C was 35.6%.

**Q.** What about the viability, T/C (second compound 0.316 µM, first compound 1 µM) of the same molecule?
**A.** The viability, T/C was 23.3%.

**Q.** And the viability, T/C (second compound 0.316 µM, first compound 3.16 µM)?
**A.** The viability, T/C was 12%.

**Q.** And the viability, T/C (second compound 0.316 µM, first compound 10 µM)?
**A.** Its viability, T/C is 6.71%.

**Q.** What about the viability, T/C (second compound 1 µM, first compound 0.0316 µM) of the same molecule?
**A.** The viability, T/C was 70.6%.

**Q.** What about the viability, T/C (second compound 1 µM, first compound 0.1 µM) of the same molecule?
**A.** Its viability, T/C is 55.2%.

**Q.** What about the viability, T/C (second compound 1 µM, first compound 0.316 µM) of the same molecule?
**A.** The viability, T/C was 32.8%.

**Q.** And the viability, T/C (second compound 1 µM, first compound 1 µM)?
**A.** Its viability, T/C is 19.6%.

**Q.** What about the viability, T/C (second compound 1 µM, first compound 3.16 µM) of the same molecule?
**A.** Its viability, T/C is 10.3%.

**Q.** And the viability, T/C (second compound 1 µM, first compound 10 µM)?
**A.** Its viability, T/C is 6.44%.

**Q.** And the viability, T/C (second compound 3.16 µM, first compound 0.0316 µM)?
**A.** Its viability, T/C is 69.3%.

**Q.** And the viability, T/C (second compound 3.16 µM, first compound 0.1 µM)?
**A.** The viability, T/C was 54.4%.

**Q.** And the viability, T/C (second compound 3.16 µM, first compound 0.316 µM)?
**A.** Its viability, T/C is 35.4%.

**Q.** And the viability, T/C (second compound 3.16 µM, first compound 1 µM)?
**A.** The viability, T/C was 21%.

**Q.** What about the viability, T/C (second compound 3.16 µM, first compound 3.16 µM) of the same molecule?
**A.** The viability, T/C was 9.68%.

**Q.** What about the viability, T/C (second compound 3.16 µM, first compound 10 µM) of the same molecule?
**A.** The viability, T/C was 5.91%.

**Q.** What about the viability, T/C (second compound 10 µM, first compound 0.0316 µM) of the same molecule?
**A.** Its viability, T/C is 66.8%.

**Q.** What about the viability, T/C (second compound 10 µM, first compound 0.1 µM) of the same molecule?
**A.** The viability, T/C was 54.1%.

**Q.** What about the viability, T/C (second compound 10 µM, first compound 0.316 µM) of the same molecule?
**A.** The viability, T/C was 35.2%.

**Q.** What about the viability, T/C (second compound 10 µM, first compound 1 µM) of the same molecule?
**A.** Its viability, T/C is 23.5%.

**Q.** And the viability, T/C (second compound 10 µM, first compound 3.16 µM)?
**A.** Its viability, T/C is 10.1%.

**Q.** And the viability, T/C (second compound 10 µM, first compound 10 µM)?
**A.** Its viability, T/C is 5.83%.
